Numbered stars: 1 amine (or outer) side, 2 acyl side, 3 side chain; on linkers, the order of the positions; unused ones are H or OH. Bridge positions count the residues as written; N and C are the ends. Square brackets hold non-standard residues; d marks the D form. Primed or numbered codes have the meaning given here. Peptide text beside a SMILES is read from it. Tyr(Me)″ = O-methyl-tyrosine (4-methoxy-phenylalanine), COc1ccc(C[C@H](N[*:1])C(=O)[*:2])cc1; 1Nal = N[C@@H](Cc1cccc2ccccc12)C(=O)O; 2Nal = N[C@@H](Cc1ccc2ccccc2c1)C(=O)O; Cit = NC(=O)NCCC[C@H](N)C(=O)O; Orn = NCCC[C@H](N)C(=O)O; Aib = CC(C)(N)C(=O)O
T1: human IL-23R (Homo sapiens, UniProt Q5VWK5)
T1 sequence (Q5VWK5 24-355 limits assumed): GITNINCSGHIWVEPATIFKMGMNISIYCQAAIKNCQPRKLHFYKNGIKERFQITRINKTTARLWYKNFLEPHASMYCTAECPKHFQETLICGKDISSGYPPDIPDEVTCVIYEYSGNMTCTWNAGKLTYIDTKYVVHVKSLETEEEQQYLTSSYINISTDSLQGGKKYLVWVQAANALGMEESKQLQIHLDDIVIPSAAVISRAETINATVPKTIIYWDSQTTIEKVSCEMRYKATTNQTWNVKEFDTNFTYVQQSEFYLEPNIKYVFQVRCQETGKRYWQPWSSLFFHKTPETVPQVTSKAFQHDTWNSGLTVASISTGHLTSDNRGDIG

T2: IL-23 receptor on the surface of HEK-Blue IL-23 cells (UniProt Q5VWK5 24-629, limits assumed)
T2 sequence (looked up): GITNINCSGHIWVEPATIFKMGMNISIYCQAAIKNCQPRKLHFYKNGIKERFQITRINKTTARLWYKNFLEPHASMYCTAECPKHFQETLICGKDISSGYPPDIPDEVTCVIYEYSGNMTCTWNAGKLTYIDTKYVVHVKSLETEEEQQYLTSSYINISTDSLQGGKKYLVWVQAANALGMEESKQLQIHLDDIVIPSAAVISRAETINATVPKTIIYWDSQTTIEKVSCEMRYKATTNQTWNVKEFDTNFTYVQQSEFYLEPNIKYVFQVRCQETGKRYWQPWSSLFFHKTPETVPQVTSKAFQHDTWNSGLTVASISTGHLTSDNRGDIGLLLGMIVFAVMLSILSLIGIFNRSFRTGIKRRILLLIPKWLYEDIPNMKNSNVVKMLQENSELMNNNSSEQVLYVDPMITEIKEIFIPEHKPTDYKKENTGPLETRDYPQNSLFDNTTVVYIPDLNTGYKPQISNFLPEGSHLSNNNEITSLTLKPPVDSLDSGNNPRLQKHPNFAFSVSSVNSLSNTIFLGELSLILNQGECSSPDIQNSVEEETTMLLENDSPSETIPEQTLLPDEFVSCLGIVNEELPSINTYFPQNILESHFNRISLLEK

T3: recombinant human IL-23R-Fc chimera (human, UniProt Q5VWK5 24-353, limits assumed)
T3 construct: Recombinant reagent; also called interleukin-23 receptor; not shown: detected with goat anti-hu-IgG1-HRP antibody
T3 sequence (looked up): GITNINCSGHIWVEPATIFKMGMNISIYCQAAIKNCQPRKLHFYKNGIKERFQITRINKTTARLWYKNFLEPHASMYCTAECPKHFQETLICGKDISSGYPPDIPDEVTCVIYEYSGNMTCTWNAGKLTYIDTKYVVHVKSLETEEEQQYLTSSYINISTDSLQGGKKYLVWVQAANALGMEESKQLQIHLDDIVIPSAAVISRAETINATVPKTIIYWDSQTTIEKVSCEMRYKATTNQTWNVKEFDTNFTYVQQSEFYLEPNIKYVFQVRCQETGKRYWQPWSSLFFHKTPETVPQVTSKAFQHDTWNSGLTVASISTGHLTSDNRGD


Legend:
[1] = tested on: IL-23 induced STAT3 signaling; test: Inhibition of IL-23 induced STAT3 signaling in HEK-Blue IL-23 cells (SEAP reporter); type: cell-based; details: human IL-23 0.25 ng/ml, read-out: Inhibition of IL-23 induced pSTAT3 (IC50 nM)
Method in brief: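 HEK-Blue IL-23 cells (10,000/well) preincubated 60 min at 37 °C with serially diluted compound, then stimulated overnight with human IL-23 (0.25 ng/ml final). STAT3-driven SEAP in supernatant read with QUANTI-Blue after 45 min at room temperature, OD 620-655 nm; dose-response fitted.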

[2] = Protease stability in simulated intestinal fluids (FaSSIF); type: in vitro ADME; details: 37° C.; for FaSSIF 0 (min), remaining percentage of peptide compound: 0 min (set to 100%), 1 μM; for remaining at 1 h, 1 μM / remaining at 2 h, 1 μM / remaining at 4 h, 1 μM: simulated intestinal fluid (FaSSIF), protease stability; for remaining at 1 h, 1 μM: 60 min, read-out: FaSSIF 60 (min), remaining percentage of peptide compound; for remaining at 2 h, 1 μM: 120 min, read-out: FaSSIF 120 (min), remaining percentage of peptide compound; for remaining at 4 h, 1 μM: 240 min, read-out: FaSSIF 240 (min), remaining percentage of peptide compound
Protocol: Studies were carried out in simulated intestinal fluid (SIF) and simulated gastric fluid (SGF) to evaluate gastric stability of the peptide compounds of the disclosure. […]
Similarly, the term “Pancreatin-SIF” refers to a solution of simulated intestinal fluid containing pancreatin whereas “SIF-media” refers to a solution of simulated intestinal fluid without pancreatin. Pancreatin-SIF was prepared by dissolving 1 mg Pancreatin (MP Biomedicals) in 10 mL SIF media concentrate (ProSense). […]
To 76 μL of the Pepsin-SGF buffer, 4 μL of the 20 µM compound stock solution were added and incubated at 37° C. At each timepoint (0, 60, 120 and 240 minutes) the reaction was quenched with addition of 80 μL Ethanol (0.1% HCOOH). The samples were centrifuged for 20 minutes and an aliquot of the supernatant 100 μL were transferred to a LoBind-MTP plate and analyzed by LCMS/MS. The peak area response was calculated at each time point for each test compound. As internal reference, the peak area response of the same test compound at TO was calculated. The percent remaining at each timepoint was calculated based on the peak area response ratio of the test compound at TO. Time 0 was set to 100%, and all later timepoints were calculated relative to time 0.

human IL-23R = biological target: T1, human IL-23R; test: Human ELISA IL-23/IL-23R binding inhibition; details: human IL-23 coated, recombinant human IL-23R-Fc chimera
Method in brief: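 Plates coated with human IL-23 at 1 μg/ml overnight at 4° C; serially diluted peptides added with recombinant human IL-23R-Fc at 0.1 μg/ml final, 60 min at RT. Bound receptor detected with anti-human IgG1-HRP and a fluorogenic peroxidase substrate.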

[3] = biological target: T2, IL-23 receptor on the surface of …; test: cell-based or functional assay
[4] = biological target: T3, recombinant human IL-23R-Fc chimera; test: competition ELISA: coated human IL-23, IL-23R-Fc 0.1 ug/ml, peptide titrated
Protocol: Antagonism of peptide compounds for human interleukin-23 receptor inhibitors, was determined by an ELISA assay.
A 384-well plate was coated with 50 μl/well of human IL-23 at a final concentration of 1 μg/ml and incubated overnight at 4° C. The wells were washed 3 times with 80 μl wash buffer and blocked with 80 μl blocking buffer for 60 minutes at room temperature and washed again. 20 μl of serially diluted test peptides was added to each well and subsequently 20 μl of recombinant human IL-23R-Fc chimera at final concentration of 0.1 μg/ml. The plate was incubated for 60 minutes at room temperature. After the wells were washed, bound IL-23R-Fc was detected with goat anti-hu-lgG1-HRP antibody. Signals were visualized with QuantaBlu Fluorogenic Peroxidase Substrate.

Molecule	IC50 [1] [nM]	FaSSIF 0 (min), remaining percentage of peptide compound [2] [%]	remaining at 1 h, 1 μM [2] [%]	remaining at 2 h, 1 μM [2] [%]	remaining at 4 h, 1 μM [2] [%]	IC50 (human IL-23R) [µM]	Inhibition of IL-23 induced pSTAT3 (IC50 nM) [3] [nM]	IC50 [4] [µM]
COc1ccc(C[C@@H]2NC(=O)[C@H](CCCNC(=N)N)NC(=O)[C@H](CCC(N)=O)NC(=O)[C@H](Cc3c[nH]c4ccccc34)NC(=O)[C@H]([C@@H](C)O)NC(=O)[C@H](CC(N)=O)NC(=O)[C@H](NC(C)=O)CC(=O)NCCC[C@@H](C(=O)N[C@@H](CC(N)=O)C(=O)N[C@@H](CC(N)=O)C(N)=O)NC(=O)C(C)(C)NC(=O)[C@H](Cc3ccc4ccccc4c3)NC2=O)cc1 [compound 13] (Ac-[dD]NTWQRY(Me)[2Nal][Aib][Orn]NN-NH2; lactam 1-10)	1150	100	2	0	3	0.00624	–	–
COc1ccc(C[C@@H]2NC(=O)C(C)(C)NC(=O)[C@H](CCC(N)=O)NC(=O)[C@H](Cc3c[nH]c4ccccc34)NC(=O)[C@H]([C@@H](C)O)NC(=O)[C@H](CC(N)=O)NC(=O)[C@H](NC(C)=O)CCCCNC(=O)C[C@@H](C(=O)N[C@@H](CC(N)=O)C(=O)N[C@@H](CC(N)=O)C(N)=O)NC(=O)C(C)(C)NC(=O)[C@H](Cc3cccc4ccccc34)NC2=O)cc1 [compound 21] (Ac-[dK]NTWQ[Aib]Y(Me)[1Nal][Aib]DNN-NH2; lactam 1-10)	7500	100	96	98	95	0.0169	–	–
COc1ccc(C[C@@H]2NC(=O)[C@H](CCCNC(=N)N)NC(=O)[C@H](CCC(N)=O)NC(=O)[C@H](Cc3c[nH]c4ccccc34)NC(=O)[C@H]([C@@H](C)O)NC(=O)[C@H](CC(N)=O)NC(=O)[C@H](NC(C)=O)CCC(=O)NCCCC[C@@H](C(=O)N[C@@H](CC(N)=O)C(=O)N[C@@H](CC(N)=O)C(N)=O)NC(=O)C(C)(C)NC(=O)[C@H](Cc3cccc4ccccc34)NC2=O)cc1 [compound 11] (Ac-[dE]NTWQRY(Me)[1Nal][Aib]KNN-NH2; lactam 1-10)	9280	100	4	7	2	–	–	–
COc1ccc(C[C@@H]2NC(=O)[C@H](CCCNC(=N)N)NC(=O)[C@H](CCC(N)=O)NC(=O)[C@H](Cc3c[nH]c4ccccc34)NC(=O)[C@H]([C@@H](C)O)NC(=O)[C@H](CC(N)=O)NC(=O)[C@H](NC(C)=O)CCCCNC(=O)C[C@@H](C(=O)N[C@@H](CC(N)=O)C(=O)N[C@@H](CC(N)=O)C(N)=O)NC(=O)[C@H](CCCNC(N)=O)NC(=O)[C@H](Cc3cccc4ccccc34)NC2=O)cc1 [compound 18] (Ac-[dK]NTWQRY(Me)[1Nal][Cit]DNN-NH2; lactam 1-10)	10000	100	8	–	11	0.0117	–	–
Ac-[dK]NTWQR[Tyr(Me)″][2Nal]QDNN-NH2 (lactam 1-10; SMILES COc1ccc(C[C@@H]2NC(=O)[C@H](CCCNC(=N)N)NC(=O)[C@H](CCC(N)=O)NC(=O)[C@H](Cc3c[nH]c4ccccc34)NC(=O)[C@H]([C@@H](C)O)NC(=O)[C@H](CC(N)=O)NC(=O)[C@H](NC(C)=O)CCCCNC(=O)C[C@@H](C(=O)N[C@@H](CC(N)=O)C(=O)N[C@@H](CC(N)=O)C(N)=O)NC(=O)[C@H](CCC(N)=O)NC(=O)[C@H](Cc3ccc4ccccc4c3)NC2=O)cc1, synthetic macrolactam) [peptide compound SEQ ID NO: 30]	–	–	–	–	–	–	6050	0.00964
Ac-[dK]NTWQRY[2Nal][Aib]DNN-NH2 (lactam 1-10, synthetic macrolactam) [peptide compound SEQ ID NO: 4]	–	–	–	–	–	–	339	0.00159

The remaining lines, values ahead:

IC50 [1] [nM]	FaSSIF 0 (min), remaining percentage of peptide compound [2] [%]	remaining at 1 h, 1 μM [2] [%]	remaining at 2 h, 1 μM [2] [%]	remaining at 4 h, 1 μM [2] [%]	IC50 (human IL-23R) [µM]	Inhibition of IL-23 induced pSTAT3 (IC50 nM) [3] [nM]	IC50 [4] [µM]	Molecule
–	–	–	–	–	–	2210	0.00903	Ac-[dK]NTWQR[Tyr(Me)″][2Nal]K(Ac)DNN-NH2 (lactam 1-10; SMILES COc1ccc(C[C@@H]2NC(=O)[C@H](CCCNC(=N)N)NC(=O)[C@H](CCC(N)=O)NC(=O)[C@H](Cc3c[nH]c4ccccc34)NC(=O)[C@H]([C@@H](C)O)NC(=O)[C@H](CC(N)=O)NC(=O)[C@H](NC(C)=O)CCCCNC(=O)C[C@@H](C(=O)N[C@@H](CC(N)=O)C(=O)N[C@@H](CC(N)=O)C(N)=O)NC(=O)[C@H](CCCCNC(C)=O)NC(=O)[C@H](Cc3ccc4ccccc4c3)NC2=O)cc1, synthetic macrolactam) [peptide compound SEQ ID NO: 28]
–	–	–	–	–	–	9600	0.0156	Ac-[dK]NTWQR[Tyr(Me)″][1Nal]QDNN-NH2 (lactam 1-10; SMILES COc1ccc(C[C@@H]2NC(=O)[C@H](CCCNC(=N)N)NC(=O)[C@H](CCC(N)=O)NC(=O)[C@H](Cc3c[nH]c4ccccc34)NC(=O)[C@H]([C@@H](C)O)NC(=O)[C@H](CC(N)=O)NC(=O)[C@H](NC(C)=O)CCCCNC(=O)C[C@@H](C(=O)N[C@@H](CC(N)=O)C(=O)N[C@@H](CC(N)=O)C(N)=O)NC(=O)[C@H](CCC(N)=O)NC(=O)[C@H](Cc3cccc4ccccc34)NC2=O)cc1, synthetic macrolactam) [peptide compound SEQ ID NO: 19]
–	–	–	–	–	–	1610	0.00355	Ac-KNTWQR[Tyr(Me)″][1Nal][Aib]DNN-NH2 (lactam 1-10; SMILES COc1ccc(C[C@@H]2NC(=O)[C@H](CCCNC(=N)N)NC(=O)[C@H](CCC(N)=O)NC(=O)[C@H](Cc3c[nH]c4ccccc34)NC(=O)[C@H]([C@@H](C)O)NC(=O)[C@H](CC(N)=O)NC(=O)[C@@H](NC(C)=O)CCCCNC(=O)C[C@@H](C(=O)N[C@@H](CC(N)=O)C(=O)N[C@@H](CC(N)=O)C(N)=O)NC(=O)C(C)(C)NC(=O)[C@H](Cc3cccc4ccccc34)NC2=O)cc1, synthetic macrolactam) [peptide compound SEQ ID NO: 9]

Reference: patent publication US20260250322A1, “NEW PEPTIDES AS SELECTIVE IL-23 RECEPTOR INHIBITORS” (SANOFI, priority 2023, published 2026)
